# US20160158200A1, “Combinations of Hepatitis C Virus Inhibitors” (priority 2013, published 2016)
# Tested on: HCV genotype-1a variant with glutamine 30 changed to glutamate in the NS5A protein
# Format: cell-based
# Details: test compound titrated with BMS-790052 fixed at 200 nM; genotype 1a Q30E replicon
# Outline: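 Synergy was assessed by combining several fixed amounts of an NS5A-targeting compound with a titration of the second compound of interest.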
row,SMILES,Fold-Synergistic 1a (Q30E) [fold]
1,C=C1C[C@@H](C(=O)N[C@H](c2nc(-c3ccc(-c4ccc(-c5c[nH]c([C@@H](NC(=O)[C@@H]6CC(=C)CN6C(=O)OC(C)(C)C)C(C)C)n5)cc4)cc3)c[nH]2)C(C)C)N(C(=O)OC(C)(C)C)C1 [Compound W-89],>100
2,C=C1C[C@@H](C(=O)N[C@H](c2nc(-c3ccc(-c4ccc(-c5c[nH]c([C@@H](NC(=O)[C@@H]6CC(=C)CN6C(=O)OC(C)(C)C)C(C)(C)C)n5)cc4)cc3)c[nH]2)C(C)(C)C)N(C(=O)OC(C)(C)C)C1 [Compound W-91],>100
3,CC(C)(C)[C@H](NC(=O)C12CCC(CC1)N2)c1nc(-c2ccc(-c3ccc(-c4c[nH]c([C@@H](NC(=O)C56CCC(CC5)N6)C(C)(C)C)n4)cc3)cc2)c[nH]1.Cl.Cl.Cl.Cl [Compound W-92],>10
4,CC1(C)C[C@@H](C(=O)N[C@H](c2nc(-c3ccc(-c4ccc(-c5c[nH]c([C@@H](NC(=O)[C@@H]6CC(C)(C)CN6C(=O)OC(C)(C)C)C(C)(C)C)n5)cc4)cc3)c[nH]2)C(C)(C)C)N(C(=O)OC(C)(C)C)C1 [Compound W-93],>100
5,CC(C)(C)OC(=O)N1CC2(CC2)C[C@H]1C(=O)N[C@H](c1nc(-c2ccc(-c3ccc(-c4c[nH]c([C@@H](NC(=O)[C@@H]5CC6(CC6)CN5C(=O)OC(C)(C)C)C(C)(C)C)n4)cc3)cc2)c[nH]1)C(C)(C)C [Compound W-94],>100
6,CC(C)C(NC(=O)C1CC(O)CN1C(=O)OC(C)(C)C)c1nc(-c2ccc(-c3ccc(-c4c[nH]c(C(NC(=O)C5CC(O)CN5C(=O)OC(C)(C)C)C(C)C)n4)cc3)cc2)c[nH]1 (centres unmarked) [Compound W-100],>100
7,"CC(C)(C)[C@H](NC(=O)[C@@H]1C[C@@H](F)CN1)c1nc(-c2ccc(-c3ccc(-c4c[nH]c([C@@H](NC(=O)[C@@H]5C[C@@H](F)CN5)C(C)(C)C)n4)cc3)cc2)c[nH]1 [Compound W-101, (2S,2'S,4R,4′R)—N,N′-((1S,1′S)-(4,4′-([1,1′-biphenyl]-4,4′-diyl)bis(1H-imidazole-4,2-diyl))bis(2,2-dimethylpropane-1,1-diyl))bis(4-fluoropyrrolidine-2-carboxamide)]",>10
8,CC(=O)N1C[C@H](F)C[C@H]1C(=O)N[C@H](c1nc(-c2ccc(-c3ccc(-c4c[nH]c([C@@H](NC(=O)[C@@H]5C[C@@H](F)CN5C(C)=O)C(C)(C)C)n4)cc3)cc2)c[nH]1)C(C)(C)C [Compound W-102],>10
9,COCCC(=O)N1C[C@H](F)C[C@H]1C(=O)N[C@H](c1nc(-c2ccc(-c3ccc(-c4c[nH]c([C@@H](NC(=O)[C@@H]5C[C@@H](F)CN5C(=O)CCOC)C(C)(C)C)n4)cc3)cc2)c[nH]1)C(C)(C)C [Compound W-103],>100
10,CC(C)(C)C(NC(=O)C1CC(F)CN1C(=O)OC1CCCC1)c1nc(-c2ccc(-c3ccc(-c4c[nH]c(C(NC(=O)C5CC(F)CN5C(=O)OC5CCCC5)C(C)(C)C)n4)cc3)cc2)c[nH]1 (centres unmarked) [Compound W-111],>100
11,COC(=O)N1C2CCC1(C(=O)N[C@H](c1nc(-c3ccc(-c4ccc(-c5c[nH]c([C@@H](NC(=O)C67CCC(CC6)N7C(=O)OC)C(C)(C)C)n5)cc4)cc3)c[nH]1)C(C)(C)C)CC2.O=C(O)C(F)(F)F.O=C(O)C(F)(F)F [Compound W-117],>100
12,CC(C)OC(=O)N1C2CCC1(C(=O)N[C@H](c1nc(-c3ccc(-c4ccc(-c5c[nH]c([C@@H](NC(=O)C67CCC(CC6)N7C(=O)OC(C)C)C(C)(C)C)n5)cc4)cc3)c[nH]1)C(C)(C)C)CC2.O=C(O)C(F)(F)F.O=C(O)C(F)(F)F [Compound W-118],>100
13,CC1(OC(=O)N2CC(F)CC2C(=O)NC(c2nc(-c3ccc(-c4ccc(-c5c[nH]c(C(NC(=O)C6CC(F)CN6C(=O)OC6(C)CC6)C(C)(C)C)n5)cc4)cc3)c[nH]2)C(C)(C)C)CC1 (centres unmarked) [Compound W-119],>100
14,CC1(C)CC(C(=O)N[C@H](c2nc(-c3ccc(-c4ccc(-c5c[nH]c([C@@H](NC(=O)C6CCOC(C)(C)C6)C(C)(C)C)n5)cc4)cc3)c[nH]2)C(C)(C)C)CCO1 (some centres unmarked) [Compound W-122],>100
15,CC(C)(C)[C@H](NC(=O)C1CCOCC1)c1nc(-c2ccc(-c3ccc(-c4c[nH]c([C@@H](NC(=O)C5CCOCC5)C(C)(C)C)n4)cc3)cc2)c[nH]1 [Compound W-123],>100
16,COC(=O)C1(C(=O)N[C@H](c2nc(-c3ccc(-c4ccc(-c5c[nH]c([C@@H](NC(=O)C6(C(=O)OC)CC6)C(C)(C)C)n5)cc4)cc3)c[nH]2)C(C)(C)C)CC1 [Compound W-124],>100
17,CC(CO)(CO)C(=O)N[C@H](c1nc(-c2ccc(-c3ccc(-c4c[nH]c([C@@H](NC(=O)C(C)(CO)CO)C(C)(C)C)n4)cc3)cc2)c[nH]1)C(C)(C)C [Compound W-125],>100
18,CCOC(=O)C(C)(C)C(=O)N[C@H](c1nc(-c2ccc(-c3ccc(-c4c[nH]c([C@@H](NC(=O)C(C)(C)C(=O)OCC)C(C)(C)C)n4)cc3)cc2)c[nH]1)C(C)(C)C.O=C(O)C(F)(F)F.O=C(O)C(F)(F)F [Compound W-126],>100
19,COC(=O)C12CCC(C(=O)N[C@H](c3nc(-c4ccc(-c5ccc(-c6c[nH]c([C@@H](NC(=O)C78CCC(C(=O)OC)(CC7)CC8)C(C)(C)C)n6)cc5)cc4)c[nH]3)C(C)(C)C)(CC1)CC2 [Compound W-127],>100

row,SMILES,Fold-Synergistic 1a (Q30E) [fold]
1,CC(C)(C)[C@H](NC(=O)C12CCC(O)(CC1)CC2)c1nc(-c2ccc(-c3ccc(-c4c[nH]c([C@@H](NC(=O)C56CCC(O)(CC5)CC6)C(C)(C)C)n4)cc3)cc2)c[nH]1 [Compound W-128],>100
2,CC(C)(C)[C@H](NC(=O)C1CCOC1)c1nc(-c2ccc(-c3ccc(-c4c[nH]c([C@@H](NC(=O)C5CCOC5)C(C)(C)C)n4)cc3)cc2)c[nH]1 (some centres unmarked) [Compound W-129],>10
3,CC1(C(=O)N[C@H](c2nc(-c3ccc(-c4ccc(-c5c[nH]c([C@@H](NC(=O)C6(C)CCOCC6)C(C)(C)C)n5)cc4)cc3)c[nH]2)C(C)(C)C)CCOCC1 [Compound W-130],>100
4,CC(C)(C)[C@H](NC(=O)C1CCCOC1)c1nc(-c2ccc(-c3ccc(-c4c[nH]c([C@@H](NC(=O)C5CCCOC5)C(C)(C)C)n4)cc3)cc2)c[nH]1 (some centres unmarked) [Compound W-131],>100
5,CC(C)(C)OC(=O)NC1(C(=O)N[C@H](c2nc(-c3ccc(-c4ccc(-c5c[nH]c([C@@H](NC(=O)C6(NC(=O)OC(C)(C)C)CCOCC6)C(C)(C)C)n5)cc4)cc3)c[nH]2)C(C)(C)C)CCOCC1 [Compound W-132],>100
6,CC(C)(C)C(NC(=O)C1CCC(O)CC1)c1nc(-c2ccc(-c3ccc(-c4c[nH]c(C(NC(=O)C5CCC(O)CC5)C(C)(C)C)n4)cc3)cc2)c[nH]1 (centres unmarked) [Compound W-134],>100
7,CC(C)(C(=O)N[C@H](c1nc(-c2ccc(-c3ccc(-c4c[nH]c([C@@H](NC(=O)C(C)(C)C(=O)N5CCOCC5)C(C)(C)C)n4)cc3)cc2)c[nH]1)C(C)(C)C)C(=O)N1CCOCC1 [Compound W-135],>10
8,CC(C)(Br)C(=O)N[C@H](c1nc(-c2ccc(-c3ccc(-c4c[nH]c([C@@H](NC(=O)C(C)(C)Br)C(C)(C)C)n4)cc3)cc2)c[nH]1)C(C)(C)C [Compound W-149],>100
9,CC(C)(C)[C@H](NC(=O)C(C)(C)n1cnc(C(F)(F)F)c1)c1nc(-c2ccc(-c3ccc(-c4c[nH]c([C@@H](NC(=O)C(C)(C)n5cnc(C(F)(F)F)c5)C(C)(C)C)n4)cc3)cc2)c[nH]1 [Compound W-150],>100
10,CC(C)[C@H](NC(=O)C(C)(C)N1C[C@@H](C)O[C@@H](C)C1)c1nc(-c2ccc(-c3ccc(-c4c[nH]c([C@@H](NC(=O)C(C)(C)N5C[C@@H](C)O[C@@H](C)C5)C(C)C)n4)cc3)cc2)c[nH]1 [Compound W-161],>100
11,CC(C)(C)[C@H](NC(=O)C1CC(=O)C1)c1nc(-c2ccc(-c3ccc(-c4c[nH]c([C@@H](NC(=O)C5CC(=O)C5)C(C)(C)C)n4)cc3)cc2)c[nH]1 [Compound W-171],>100
12,CC(C)[C@H](NC(=O)C1CC(=O)C1)c1nc(-c2ccc(-c3ccc(-c4c[nH]c([C@@H](NC(=O)C5CC(=O)C5)C(C)C)n4)cc3)cc2)c[nH]1 [Compound W-172],>10
13,CC(C)(C)[C@H](NC(=O)C1CCC(=O)CC1)c1nc(-c2ccc(-c3ccc(-c4c[nH]c([C@@H](NC(=O)C5CCC(=O)CC5)C(C)(C)C)n4)cc3)cc2)c[nH]1 [Compound W-173],>100
14,CC1(O)CCC(C(=O)N[C@H](c2nc(-c3ccc(-c4ccc(-c5c[nH]c([C@@H](NC(=O)C6CCC(C)(O)CC6)C(C)(C)C)n5)cc4)cc3)c[nH]2)C(C)(C)C)CC1 (some centres unmarked) [Compound W-175],>100
15,CC(C)(C)[C@H](NC(=O)C1CC2(C1)OCCO2)c1nc(-c2ccc(-c3ccc(-c4c[nH]c([C@@H](NC(=O)C5CC6(C5)OCCO6)C(C)(C)C)n4)cc3)cc2)c[nH]1 (some centres unmarked) [Compound W-178],>100
16,CC(C)(C)[C@H](Nc1nc(Cl)c(Cl)s1)c1nc(-c2ccc(-c3ccc(-c4c[nH]c([C@@H](Nc5nc(Cl)c(Cl)s5)C(C)(C)C)n4)cc3)cc2)c[nH]1 [Compound W-179],>10
17,CC(C)C(NC(=O)C1CC(F)CN1C(=O)OC(C)(C)C)c1nc(-c2ccc(-c3ccc(-c4c[nH]c(C(NC(=O)C5CC(F)CN5C(=O)OC(C)(C)C)C(C)C)n4)cc3)cc2)c[nH]1 (centres unmarked) [Compound W-181],>100
18,C[C@H]1CCN(C(=O)C(=O)N2CCC(F)(F)CC2)C1c1nc(-c2ccc(-c3ccc(-c4c[nH]c(C5[C@@H](C)CCN5C(=O)C(=O)N5CCC(F)(F)CC5)n4)cc3)cc2)c[nH]1 (some centres unmarked) [Compound W-186],>100
19,C[C@H]1CCN(C(=O)C(=O)N2CCC(F)(F)CC2)C1c1nc(-c2ccc(-c3ccc(-c4c[nH]c(C5[C@@H](C)CCN5C(=O)C(=O)N5CCC(F)(F)CC5)n4)cc3)cc2)c[nH]1 (some centres unmarked) [Compound W-187],>100
